# Experimental data taken from patent US20050203063A1, “Proteasome pathway inhibitors and related methods” (priority 2003, published 2005).
# Entries after “also recorded” stand apart in the source; their conditions may differ. Where two headings read alike, the source gives them in different places.
# What was measured:
# Assay type in all cases: biochemical
# [1] = tested on: β-catenin-luciferase turnover (substrate of the SCFβ-TRCP ubiquitin ligase); test: β-catenin-luciferase turnover in interphase Xenopus extracts stimulated with recombinant axin; settings: 200 μM compound
# Procedure: (§1) FIG. 1. Functional classification of inhibitors. Compounds that scored in the initial screen were reacquired as dry powders and retested in Xenopus extracts in 4 assays at 200 μM concentration (32) as described (6). […] (A) Compounds and cyclin-luciferase were added to interphase extracts, which were then induced to enter mitosis by addition of non-degradable cyclin B. Percent inhibition of cyc-luc turnover by each compound is coded according to the grayscale shown at the bottom of the figure; specific values are available in Table 1. (B) Extracts were pre-treated with non-degradable cyclin B to allow entry into mitosis prior to addition of test compound and reporter protein. (C) Interphase extracts were treated by addition of recombinant Cdh1 to activate cyc-luc turnover. (D) Interphase extracts were treated with recombinant axin to induce turnover of β-catenin-luciferase.
# (§2) The “Cmpd” column corresponds to the numbers used in FIG. 1; “Class” refers to the class of inhibitor described in FIG. 1 and the text. Columns A-D show percent inhibition in the four assays described in FIG. 1. (A) Interphase extracts (B) Mitotic extracts (C) Interphase extracts stimulated with Cdh1 (D) Degradation of a β-catenin reporter protein in interphase extracts stimulated with recombinant axin. […] “ID#” refers to the identification number of the inhibitor obtained from the NCI (prefaced by NSC) or Chembridge (prefaced by C).
# (§3) Dry compounds were redissolved at 20 mM concentration in DMSO, or a 50:50 water:DMSO mixture in certain cases. These compounds were then diluted ten-fold in XB and mixed thoroughly. For the assay in FIG. 1A, chilled interphase extract was mixed with cyclin BΔ90 (10 μg/ml) and cyc-luc (0.1 μg/ml) in bulk and then 27 μl of extract was pipetted to each well of a chilled 384-well plate. Three microliters of each compound (diluted in XB) was then added to each well, and then compounds mixed thoroughly. Plates were warmed to room temperature. After 70 minutes, 5 μl aliquots were transferred to another plate, and then 30 μl of luciferin reagent was added to each well and luminescence measured. Percent inhibition was calculated as described above. The reported values represent the average of three independent measurments. For the assay in FIG. 1B, interphase extracts were treated with 10 μg/cyclin B 90 for 50 minutes at room temperature and then chilled on ice. Cyc-luc was then added, and then 27 μl of extract was pipetted to each well of a chilled 384-well plate. Three microliters of each compound (diluted in XB) was then added to each well, and then compounds mixed thoroughly. Plates were warmed to room temperature. After 60 minutes, 5 μl aliquots were transferred to another plate, and then 30 μl of luciferin reagent was added to each well and luminescence measured. For the assay in FIG. 1C, recombinant Cdh1 (0.1 μg/ml) and cyc-luc were added to chilled interphase extracts. Extracts were then pipetted and compounds added as above. Plates were warmed to room temperature and incubated for three hours, following which luminescence was measured as above. For the assay in FIG. 1D, chilled interphase extracts received recombinant axin and beta-catenin-luciferase reporter as described (8). Extracts were aliquoted to chilled plates and compounds distributed as described above. Plates were warmed to room temperature, incubated for three hours, and luminescence measured.
# [2] = biological target: T1, 20S core peptidase activity (Saccharomyces cerevisiae, UniProt P25043+P30656+P38624); test: 20S core peptidase activity in native gel with fluorescent substrate
# T1 construct: made in house; host or cells: S. cerevisiae cells expressing Flag-tagged PRE1
# Procedure: (§4) FIG. 6. […] (A) Purified 26S proteasomes were preincubated with test compounds before being resolved on a native gel. Following electrophoresis, the gel was stained with Coomassie Blue. […] Same as (A), except that following electrophoresis, the gel was incubated with fluorescent substrate to determine peptidase activity, which was visualized using a UV transilluminator (9). […] (C) Untreated 26S proteasomes were resolved on a native gel. Following electrophoresis, the gel was incubated with the peptidase substrate in the presence of ubistatin.
# (§5) 26S proteasomes were purified from S. cerevisiae cells expressing a Flag-tagged proteasomal subunit (PRE1) essentially as described (28).
# [3] = tested on: cyclin-luciferase (cyc-luc) turnover, APC/C activation; test: cyc-luc turnover in interphase Xenopus extracts induced to enter mitosis by non-degradable cyclin B; settings: 200 μM compound; added to interphase extracts then induced to enter mitosis; average of three measurements
# Procedure: as §1, §2
# Extracts were rapidly thawed and diluted to a final concentration of 75% in extract buffer (XB) just prior to assay (XB; 100 mM KCl, 0.1 mM CaCl2, 1 mM MgCl2, 10 mM potassium HEPES, pH 7.7, 50 mM sucrose). Extracts were kept on ice and supplemented with 1 mg/ml bovine ubiquitin (Sigma) unless otherwise stated. Cyc-luc expressed in reticulocyte lysate was diluted 1/200 for most assays. High-throughput screening utilized the bacterially expressed and purified cyclin-luc fusion protein, which was added to extracts at a final concentration of 0.1 μg/ml. To induce entrance into mitosis, cyclin BΔ90 protein was added to a final concentration of 10 μg/ml. For the dose response analysis, inhibitors were purchased from Calbiochem (San Diego, Calif.) and dissolved in DMSO as 10 mM stocks. Cyclin-luciferase and cyclin BΔ90 were mixed with interphase extract and placed on ice. Inhibitors were then added to extracts to yield a final DMSO concentration of 1%. 10 μl aliquots of extract were distributed into 384-well white Cliniplates (Labsystems), and cell cycle progression was initiated by warming the samples to room temperature. After 60 minutes, 30 μl of luciferin reagent (20 mM tricine pH 7.8, 470 μM D-Luciferin [Molecular Probes]), 270 μM Coenzyme A, 0.1 mM EDTA, 33 mM DTT, and 530 μM ATP) was added using a multidrop dispenser (Labsystems). Luminescence was measured on an Analyst plate reader (LJL Biosystems). The values for 3 replicates were averaged. For the dose response analysis, percent inhibition was calculated as 100*(T−M)/(I−M) where T equals the test value for the inhibitor, M equals the value in a mitotic extract lacking inhibitor, and I equals the value in an interphase extract. For certain experiments, methylated ubiquitin was added to interphase extracts at a concentration of 1 mg/ml in the presence or absence of added unmodified ubiquitin (1 mg/ml) used as competitor. Cyclin-luciferase and cyclin BΔ90 were then added. After 60 minutes, the reactions were stopped and analyzed as described above.
# Dry compounds were redissolved at 20 mM concentration in DMSO, or a 50:50 water:DMSO mixture in certain cases. These compounds were then diluted ten-fold in XB and mixed thoroughly. For the assay in FIG. 1A, chilled interphase extract was mixed with cyclin BΔ90 (10 μg/ml) and cyc-luc (0.1 μg/ml) in bulk and then 27 μl of extract was pipetted to each well of a chilled 384-well plate.
# [4] = biological target: T2, 26S proteasomes (Saccharomyces cerevisiae, UniProt P38886+P43588); test: 26S proteasome integrity on native gel (Coomassie Blue); settings: concentrations that inhibit ubiquitin-dependent proteolysis
# T2 construct: 26S proteasomes were purified from S. cerevisiae cells expressing a Flag-tagged proteasomal subunit (PRE1); made in house; host or cells: S. cerevisiae cells expressing Flag-tagged PRE1
# Procedure: as §4, §5
# [5] = tested on: Cdh1-stimulated cyc-luc proteolysis (APC/C); test: cyc-luc turnover in interphase Xenopus extracts stimulated with recombinant Cdh1; settings: 200 μM compound; negative values reflect stimulation of proteolysis
# Procedure: as §1, §2, §3
# T2 sequence (P43588 whole entry): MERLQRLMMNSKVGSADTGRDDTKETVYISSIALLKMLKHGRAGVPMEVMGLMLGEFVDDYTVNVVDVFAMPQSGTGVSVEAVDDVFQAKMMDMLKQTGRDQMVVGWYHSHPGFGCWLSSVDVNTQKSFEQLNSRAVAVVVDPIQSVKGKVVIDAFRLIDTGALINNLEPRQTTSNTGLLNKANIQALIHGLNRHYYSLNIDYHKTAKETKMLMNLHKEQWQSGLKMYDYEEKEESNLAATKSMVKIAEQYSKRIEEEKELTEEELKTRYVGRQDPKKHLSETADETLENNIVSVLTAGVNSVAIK
# T2 sequence (P38886 whole entry): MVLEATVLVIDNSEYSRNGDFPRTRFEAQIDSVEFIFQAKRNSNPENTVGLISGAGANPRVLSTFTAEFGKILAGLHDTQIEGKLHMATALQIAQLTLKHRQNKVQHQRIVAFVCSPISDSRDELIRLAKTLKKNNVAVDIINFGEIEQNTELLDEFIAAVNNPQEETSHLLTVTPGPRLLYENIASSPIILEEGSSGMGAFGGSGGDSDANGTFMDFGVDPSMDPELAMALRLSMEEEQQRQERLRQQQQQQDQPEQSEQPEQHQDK
SMILES,"percent inhibition, (D) Degradation of a β-catenin reporter protein in interphase extracts stimulated with recombinant axin [1] [%]",effect on 20S core peptidase activity ([2]; listed as C92),"percent inhibition of cyc-luc turnover, (A) Interphase extracts [3] [%]",effect on 26S proteasome integrity / assembly [4],"percent inhibition of cyc-luc turnover, (C) Interphase extracts stimulated with Cdh1 [5] [%]",effect on 20S core peptidase activity [2]
O=C(Nc1ccc(/C=C/c2ccc(NC(=O)c3cc(S(=O)(=O)O)c4cccnc4c3O)cc2S(=O)(=O)O)c(S(=O)(=O)O)c1)c1cc(S(=O)(=O)O)c2cccnc2c1O [Compound 92],21,does not affect; also recorded: without affecting,60,without affecting,65,
CC(=O)Nc1ccc(SSc2ccc(NC(C)=O)c3cccnc23)c2ncccc12 [Compound 23],27,,100,,100,without effect
O=S(=O)(O)c1ccc2cc3c(cc2c1)NN(c1ccc(/C=C/c2ccc(N4Nc5cc6ccc(S(=O)(=O)O)cc6cc5N4)cc2S(=O)(=O)O)c(S(=O)(=O)O)c1)N3 [Compound 59],70,,97,without affecting,100,without affecting
